Source: PMC11999743 (Journal of Analytical Methods in Chemistry, 2025)
Counter-ions that a name gives are not always drawn.

Test: Pharmacokinetic study in naive mice after intraperitoneal injection
Settings: 3 mg/kg; for V_F: uncorrected for bioavailability
Procedure: Nine-week-old male Swiss mice (Janvier Labs, Le Genest-Saint-Isle, France), weighing 35–45 g at the time of experimentation, were used. […] Food and tap water were given ad libitum.
Their hind legs were depilated after a 1 min application of a commercial depilatory cream and rinsed with water. Subsequently, the mice were returned to their cages to allow for recovery and complete anesthesia washout. On the day of the experiment, an initial blood sample (20–30 μL) was collected by perforation of the saphenous vein from the mice.
For each treatment group, mice were subdivided into two cohorts, with blood samples collected at distinct time intervals after injection, totaling 14 time points for pharmacokinetic modeling. Compliance with regulatory directives prevented the collection of more than eight blood samples from individual animals. […] Blood samples were acquired using heparinized capillaries containing 2 μL of sodium heparin (Panpharma, France). After collection, the samples were transferred to Eppendorf tubes and centrifuged at 3000 g and 4°C for 10 min. The recovered plasma was then stored at −80°C until analysis. At the end of the experiments, the mice were euthanized by i.p. lethal injection (150 mg/kg) of sodium pentobarbital (Doléthal, Vétoquinol SA, France).
Pharmacokinetic analysis was carried out from the average concentration values at each time point using the Phoenix WinNonLin Version 8.4 software (Certara, Princeton NJ, USA). Pharmacokinetic parameters were determined from the plasma concentration-time data using a compartmental approach and include the total area under the plasma concentration-time curve (AUC0-∞), elimination half-life (t1/2elim), total clearance (CL/F), and volume of distribution (V). CL and V were uncorrected for the bioavailability (F).

[1] = male, Swiss, mouse, in vivo, ip

| AUC [1] [ng·h/mL] | CL/F [1] [mL/min/kg] | Cmax [1] [ng/mL] | Tmax (male, Swiss, mouse, in vivo, ip, T max, naive mice, plasma) [min] | half-life (male, Swiss, mouse, in vivo, ip, t 1/2elim, naive mice, plasma) [min] | T max (naive mice, i.p., plasma) [min] | t 1/2elim (naive mice, i.p., plasma) [min] | Time after which plasma concentrations were below the LLOQ (naive mice, i.p., LLOQ 0.5 ng/mL tiotropium, 1 ng/mL atropine) [min] | SMILES | V_F (naive mice, i.p.) [L/kg] |
| --- | --- | --- | --- | --- | --- | --- | --- | --- | --- |
|  |  |  |  |  |  |  |  | CN1[C@@H]2CC[C@H]1C[C@@H](OC(=O)C(CO)c1ccccc1)C2 (stereo partly shown) [Atropine, Atropine sulfate monohydrate] | 5.204 ± 0.43 |
| 199 | 201 ± 5 | 705 ± 22 | 4.9 | ~7.5 | 4.89 ± 0.24 | 7.43 ± 0.12 | 60 | C[N+]1(C)[C@@H]2C[C@@H](OC(=O)C(O)(c3cccs3)c3cccs3)C[C@H]1[C@@H]1O[C@@H]12 [Tiotropium, Tiotropium bromide monohydrate] | 2.158 ± 0.075 |
